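Results reflect a 48-hour exposure of cells in 96-well plates to compound at five concentrations. At the TGI there is no net growth.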
Columns and labels:
Experiment in all cases: NCI tumour cell line growth inhibition, 48 h
MDA-N = tested on: MDA-N
SNB-75 CNS = tested on: SNB-75 CNS
SNB-19 CNS = tested on: SNB-19 CNS
UO-31 renal = tested on: UO-31 renal
HOP-92 NSCLC = tested on: HOP-92 NSCLC
NCI-H23 lung = tested on: NCI-H23 lung
HL-60(TB) leukemia = tested on: HL-60(TB) leukemia
PC-3 prostate = tested on: PC-3 prostate
ACHN renal = tested on: ACHN renal
UACC-62 melanoma = tested on: UACC-62 melanoma
SF-539 CNS = tested on: SF-539 CNS
LOX IMVI melanoma = tested on: LOX IMVI melanoma
HT29 colon = tested on: HT29 colon
RXF 393 renal = tested on: RXF 393 renal
A498 renal = tested on: A498 renal
SF-268 CNS = tested on: SF-268 CNS
MALME-3M melanoma = tested on: MALME-3M melanoma
NCI-H226 lung = tested on: NCI-H226 lung
M14 melanoma = tested on: M14 melanoma
SK-MEL-2 melanoma = tested on: SK-MEL-2 melanoma
EKVX NSCLC = tested on: EKVX NSCLC
MDA-MB-435 = tested on: MDA-MB-435
NCI-H460 lung = tested on: NCI-H460 lung
SK-MEL-28 melanoma = tested on: SK-MEL-28 melanoma
CCRF-CEM leukemia = tested on: CCRF-CEM leukemia
SF-295 CNS = tested on: SF-295 CNS
MDA-MB-231 breast = tested on: MDA-MB-231 breast
HCC-2998 colon = tested on: HCC-2998 colon
SK-OV-3 ovarian = tested on: SK-OV-3 ovarian
DU-145 prostate = tested on: DU-145 prostate
U251 CNS = tested on: U251 CNS
OVCAR-5 ovarian = tested on: OVCAR-5 ovarian
OVCAR-3 ovarian = tested on: OVCAR-3 ovarian
SN12C renal = tested on: SN12C renal
HOP-62 NSCLC = tested on: HOP-62 NSCLC
SW-620 colon = tested on: SW-620 colon
786-0 renal = tested on: 786-0 renal
SR leukemia = tested on: SR leukemia
UACC-257 melanoma = tested on: UACC-257 melanoma
T-47D breast = tested on: T-47D breast
HCT-15 colon = tested on: HCT-15 colon
HCT-116 colon = tested on: HCT-116 colon
NCI/ADR-RES ovarian = tested on: NCI/ADR-RES ovarian
MCF7 breast = tested on: MCF7 breast
TK-10 renal = tested on: TK-10 renal
SK-MEL-5 melanoma = tested on: SK-MEL-5 melanoma
OVCAR-8 ovarian = tested on: OVCAR-8 ovarian
CAKI-1 renal = tested on: CAKI-1 renal
K-562 leukemia = tested on: K-562 leukemia
HS 578T breast = tested on: HS 578T breast
COLO 205 colon = tested on: COLO 205 colon
KM12 colon = tested on: KM12 colon
MOLT-4 leukemia = tested on: MOLT-4 leukemia
A549 NSCLC = tested on: A549 NSCLC
OVCAR-4 ovarian = tested on: OVCAR-4 ovarian
RPMI-8226 leukemia = tested on: RPMI-8226 leukemia
NCI-H522 lung = tested on: NCI-H522 lung
IGROV1 ovarian = tested on: IGROV1 ovarian

COc1cc(C=O)cc(/C=N/c2ccccn2)c1O was tested, and the TGI (MDA-N) was 35.6 µM, the TGI (SNB-75 CNS) was 16.3 µM and the TGI (SNB-19 CNS) was greater than 100 µM. It also gave a TGI (UO-31 renal) of 14.1 µM, a TGI (HOP-92 NSCLC) of 8.55 µM and a TGI (NCI-H23 lung) greater than 100 µM. For the same compound, the TGI (HL-60(TB) leukemia) was 83.3 µM, the TGI (PC-3 prostate) was 25.6 µM and the TGI (ACHN renal) was 6.97 µM. For the same compound, the TGI (UACC-62 melanoma) was greater than 100 µM, the TGI (SF-539 CNS) was 8.84 µM and the TGI (LOX IMVI melanoma) was 30.9 µM. It also gave a TGI (HT29 colon) of 55 µM, a TGI (RXF 393 renal) of 4.97 µM and a TGI (A498 renal) of 31.3 µM. For the same compound, the TGI (SF-268 CNS) was 19 µM, the TGI (MALME-3M melanoma) was 14.9 µM and the TGI (NCI-H226 lung) was 38.4 µM. For the same compound, the TGI (M14 melanoma) was 62.2 µM, the TGI (SK-MEL-2 melanoma) was 10.5 µM and the TGI (EKVX NSCLC) was greater than 100 µM. For the same compound, the TGI (MDA-MB-435) was 41.4 µM, the TGI (NCI-H460 lung) was 42.7 µM and the TGI (SK-MEL-28 melanoma) was 21.9 µM. It also gave a TGI (CCRF-CEM leukemia) greater than 100 µM, a TGI (SF-295 CNS) greater than 100 µM and a TGI (MDA-MB-231 breast) greater than 100 µM. The TGI (HCC-2998 colon) was greater than 100 µM, the TGI (SK-OV-3 ovarian) was 78 µM and the TGI (DU-145 prostate) was greater than 100 µM. It also gave a TGI (U251 CNS) of 55.2 µM, a TGI (OVCAR-5 ovarian) greater than 100 µM and a TGI (OVCAR-3 ovarian) of 59.1 µM. For the same compound, the TGI (SN12C renal) was 88.8 µM, the TGI (HOP-62 NSCLC) was 80 µM and the TGI (SW-620 colon) was greater than 100 µM. The TGI (786-0 renal) was greater than 100 µM, the TGI (SR leukemia) was 34.5 µM and the TGI (UACC-257 melanoma) was 55.3 µM. It also gave a TGI (T-47D breast) greater than 100 µM, a TGI (HCT-15 colon) greater than 100 µM and a TGI (HCT-116 colon) greater than 100 µM. It also gave a TGI (NCI/ADR-RES ovarian) greater than 100 µM, a TGI (MCF7 breast) greater than 100 µM and a TGI (TK-10 renal) greater than 100 µM. For the same compound, the TGI (SK-MEL-5 melanoma) was 11.4 µM, the TGI (OVCAR-8 ovarian) was 12 µM and the TGI (CAKI-1 renal) was 9.76 µM. The TGI (K-562 leukemia) was greater than 100 µM, the TGI (HS 578T breast) was 70.6 µM and the TGI (COLO 205 colon) was 29.5 µM. It also gave a TGI (KM12 colon) greater than 100 µM, a TGI (MOLT-4 leukemia) of 88.7 µM and a TGI (A549 NSCLC) greater than 100 µM. For the same compound, the TGI (OVCAR-4 ovarian) was greater than 100 µM and the TGI (RPMI-8226 leukemia) was 51.9 µM.
Work on O=C1OCC=C1COC1OC(CO)C(O)C(O)C1O (stereo not drawn) yielded a TGI (MDA-N) greater than 100 µM, a TGI (SNB-75 CNS) greater than 100 µM and a TGI (SNB-19 CNS) greater than 100 µM. The TGI (UO-31 renal) was greater than 100 µM, the TGI (HOP-92 NSCLC) was greater than 100 µM and the TGI (NCI-H23 lung) was greater than 100 µM. The TGI (HL-60(TB) leukemia) was greater than 100 µM, the TGI (PC-3 prostate) was greater than 100 µM and the TGI (ACHN renal) was greater than 100 µM. The TGI (SF-539 CNS) was greater than 100 µM, the TGI (LOX IMVI melanoma) was greater than 100 µM and the TGI (HT29 colon) was greater than 100 µM. The TGI (RXF 393 renal) was greater than 100 µM, the TGI (A498 renal) was greater than 100 µM and the TGI (SF-268 CNS) was greater than 100 µM. The TGI (MALME-3M melanoma) was greater than 100 µM, the TGI (NCI-H226 lung) was greater than 100 µM and the TGI (M14 melanoma) was greater than 100 µM. The TGI (SK-MEL-2 melanoma) was greater than 100 µM, the TGI (EKVX NSCLC) was greater than 100 µM and the TGI (MDA-MB-435) was greater than 100 µM. It also gave a TGI (NCI-H460 lung) greater than 100 µM, a TGI (NCI-H522 lung) of 39.3 µM and a TGI (SK-MEL-28 melanoma) greater than 100 µM. The TGI (CCRF-CEM leukemia) was greater than 100 µM, the TGI (SF-295 CNS) was greater than 100 µM and the TGI (MDA-MB-231 breast) was greater than 100 µM. For the same compound, the TGI (HCC-2998 colon) was greater than 100 µM, the TGI (SK-OV-3 ovarian) was greater than 100 µM and the TGI (DU-145 prostate) was greater than 100 µM. It also gave a TGI (U251 CNS) greater than 100 µM, a TGI (OVCAR-5 ovarian) greater than 100 µM and a TGI (OVCAR-3 ovarian) greater than 100 µM. For the same compound, the TGI (SN12C renal) was greater than 100 µM, the TGI (HOP-62 NSCLC) was greater than 100 µM and the TGI (SW-620 colon) was greater than 100 µM. For the same compound, the TGI (786-0 renal) was greater than 100 µM, the TGI (SR leukemia) was greater than 100 µM and the TGI (UACC-257 melanoma) was greater than 100 µM. It also gave a TGI (T-47D breast) greater than 100 µM, a TGI (HCT-15 colon) greater than 100 µM and a TGI (HCT-116 colon) greater than 100 µM. The TGI (NCI/ADR-RES ovarian) was greater than 100 µM, the TGI (MCF7 breast) was greater than 100 µM and the TGI (TK-10 renal) was greater than 100 µM. It also gave a TGI (SK-MEL-5 melanoma) greater than 100 µM, a TGI (OVCAR-8 ovarian) greater than 100 µM and a TGI (CAKI-1 renal) greater than 100 µM. The TGI (IGROV1 ovarian) was greater than 100 µM, the TGI (K-562 leukemia) was greater than 100 µM and the TGI (HS 578T breast) was greater than 100 µM. It also gave a TGI (COLO 205 colon) greater than 100 µM, a TGI (KM12 colon) greater than 100 µM and a TGI (MOLT-4 leukemia) greater than 100 µM. It also gave a TGI (A549 NSCLC) greater than 100 µM, a TGI (OVCAR-4 ovarian) greater than 100 µM and a TGI (RPMI-8226 leukemia) greater than 100 µM.
